From US20170190671A1, “BIS(ARYL)CATECHOL DERIVATIVES AS HERBICIDES” (E I DU PONT DE NEMOURS AND COMPANY, priority 2014, published 2017)

Columns and labels:
Assay type in all cases: in vivo
[1] = test system: pigweed (Amaranthus retroflexus); assay: Test A postemergence; conditions: Amaranthus retroflexus, post-emergence, 240 h, 0 to 100 scale, read-out: Plant response rating, Pigweed; for pest or weed control at 31 g/ha: 31 g ai/ha; for pest or weed control at 125 g/ha: 125 g ai/ha
How it was run: (§1)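 Visual injury scored 0–100 (100 = complete control) against untreated controls about 10 days after treatment in a greenhouse. Test chemicals, formulated with surfactant in non-phytotoxic solvent, were sprayed on soil preemergence or on 2-10 cm, one- to two-leaf plants postemergence.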

[2] = test system: blackgrass (Alopecurus myosuroides); assay: Test A postemergence; conditions: Alopecurus myosuroides, post-emergence, 240 h, 0 to 100 scale, read-out: Plant response rating, Blackgrass; for pest or weed control at 31 g/ha: 31 g ai/ha; for pest or weed control at 125 g/ha: 125 g ai/ha
How it was run: as §1

[3] = test system: ragweed (common ragweed, Ambrosia elatior); assay: Test A postemergence; conditions: Ambrosia artemisiifolia, post-emergence, 240 h, 0 to 100 scale, read-out: Plant response rating, Ragweed; for pest or weed control at 31 g/ha: 31 g ai/ha; for pest or weed control at 125 g/ha: 125 g ai/ha
How it was run: as §1

[4] = test system: Italian ryegrass (Lolium multiflorum); assay: Test A postemergence; conditions: Lolium multiflorum, post-emergence, 240 h, 0 to 100 scale, read-out: Plant response rating, Ryegrass, Italian; for pest or weed control at 31 g/ha: 31 g ai/ha; for pest or weed control at 125 g/ha: 125 g ai/ha
How it was run: as §1

kochia (Kochia scoparia) [5] = assay: Test A postemergence; conditions: Bassia scoparia, post-emergence, 240 h, 0 to 100 scale, read-out: Plant response rating, Kochia; for pest or weed control at 31 g/ha: 31 g ai/ha; for pest or weed control at 125 g/ha: 125 g ai/ha
How it was run: as §1

corn (Zea mays) = assay: Test A postemergence; conditions: Zea mays, post-emergence, 240 h, 0 to 100 scale; for Corn plant response rating (crop injury, 0 = no effect, 100 = complete kill) at 31 g/ha: 31 g ai/ha; for Corn plant response rating (crop injury, 0 = no effect, 100 = complete kill) at 125 g/ha: 125 g ai/ha
How it was run: as §1

[6] = test system: giant foxtail (Setaria faberii); assay: Test A postemergence; conditions: Setaria faberi, post-emergence, 240 h, 0 to 100 scale, read-out: Plant response rating, Foxtail, Giant; for pest or weed control at 31 g/ha: 31 g ai/ha; for pest or weed control at 125 g/ha: 125 g ai/ha
How it was run: as §1

[7] = test system: wheat (Triticum aestivum); assay: Test A postemergence; conditions: Triticum aestivum, post-emergence, 240 h, 0 to 100 scale, read-out: Plant response rating, Wheat; for plant injury at 31 g/ha: 31 g ai/ha; for plant injury at 125 g/ha: 125 g ai/ha
How it was run: as §1

[8] = test system: barnyardgrass (Echinochloa crus-galli); assay: Test A postemergence; conditions: Echinochloa crus-galli, post-emergence, 240 h, 0 to 100 scale, read-out: Plant response rating, Barnyardgrass; for pest or weed control at 31 g/ha: 31 g ai/ha; for pest or weed control at 125 g/ha: 125 g ai/ha
How it was run: as §1

[9] = test system: galium (catchweed bedstraw, Galium aparine); assay: Test A postemergence; conditions: Galium, post-emergence, 240 h, 0 to 100 scale, read-out: Plant response rating, Galium; for pest or weed control at 31 g/ha: 31 g ai/ha; for pest or weed control at 125 g/ha: 125 g ai/ha
How it was run: as §1

[10] = test system: pigweed (Amaranthus retroflexus); assay: Test A preemergence; conditions: Amaranthus retroflexus, pre-emergence, 240 h; for pest or weed control at 31 g/ha: 31 g ai/ha; for pest or weed control at 125 g/ha: 125 g ai/ha
How it was run: as §1

[11] = test system: ragweed (common ragweed, Ambrosia elatior); assay: Test A preemergence; conditions: Ambrosia artemisiifolia, pre-emergence, 240 h; for pest or weed control at 31 g/ha: 31 g ai/ha, 0 to 100 scale (0 no effect, 100 complete control), read-out: Ragweed plant response rating; for pest or weed control at 125 g/ha: 125 g ai/ha, 0 to 100 scale, read-out: Plant response rating, Ragweed
How it was run: as §1

[12] = test system: Italian ryegrass (Lolium multiflorum); assay: Test A preemergence; conditions: Lolium multiflorum, pre-emergence, 240 h; for pest or weed control at 31 g/ha: 31 g ai/ha, 0 to 100 scale (0 no effect, 100 complete control), read-out: Ryegrass, Italian plant response rating; for pest or weed control at 125 g/ha: 125 g ai/ha, 0 to 100 scale, read-out: Plant response rating, Ryegrass, Italian
How it was run: as §1

kochia (Kochia scoparia) [13] = assay: Test A preemergence; conditions: Bassia scoparia, pre-emergence, 240 h; for pest or weed control at 31 g/ha: 31 g ai/ha, 0 to 100 scale (0 no effect, 100 complete control), read-out: Kochia plant response rating; for pest or weed control at 125 g/ha: 125 g ai/ha, 0 to 100 scale, read-out: Plant response rating, Kochia
How it was run: as §1

[14] = test system: giant foxtail (Setaria faberii); assay: Test A preemergence; conditions: Setaria faberi, pre-emergence, 240 h; for pest or weed control at 31 g/ha: 31 g ai/ha; for pest or weed control at 125 g/ha: 125 g ai/ha
How it was run: as §1

[15] = test system: barnyardgrass (Echinochloa crus-galli); assay: Test A preemergence; conditions: Echinochloa crus-galli, pre-emergence, 240 h; for pest or weed control at 31 g/ha: 31 g ai/ha, 0 to 100 scale (0 no effect, 100 complete control), read-out: Barnyardgrass plant response rating; for pest or weed control at 125 g/ha: 125 g ai/ha
How it was run: as §1

rice (Oryza sativa) = assay: Test B flooded paddy; conditions: Oryza sativa, 336 h; 250 g ai/ha, Flood, 13 to 15 days, scale 0 (no effect) to 100 (complete control); read-out: Plant response rating, Rice
How it was run: (§2)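 Visual injury ratings against untreated controls, taken 13 to 15 days after compound was added to paddy water standing 3 cm above the soil.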

[16] = test system: ducksalad (Heteranthera limosa); assay: Test B flooded paddy; conditions: Heteranthera limosa, 336 h; 250 g ai/ha, Flood, 13 to 15 days, scale 0 (no effect) to 100 (complete control); read-out: Plant response rating, Ducksalad
How it was run: as §2

[17] = test system: sedge, umbrella (small-flower umbrella sedge, Cyperus difformis); assay: Test B flooded paddy; conditions: Cyperus difformis, 336 h; 250 g ai/ha, Flood, 13 to 15 days, scale 0 (no effect) to 100 (complete control); read-out: Plant response rating, Sedge, Umbrella
How it was run: as §2

[18] = test system: barnyardgrass (Echinochloa crus-galli); assay: Test B flooded paddy; conditions: Echinochloa crus-galli, 336 h; 250 g ai/ha, Flood, 13 to 15 days, scale 0 (no effect) to 100 (complete control); read-out: Plant response rating, Barnyardgrass
How it was run: as §2

[19] = 0 to 100 scale (0 no effect, 100 complete control), read-out: Pigweed plant response rating
[20] = 0 to 100 scale, read-out: Plant response rating, Pigweed
[21] = 0 to 100 scale (0 no effect, 100 complete control), read-out: Foxtail, Giant plant response rating
[22] = 0 to 100 scale, read-out: Plant response rating, Foxtail, Giant
[23] = 0 to 100 scale, read-out: Plant response rating, Barnyardgrass

| SMILES | pest or weed control at 31 g/ha [1] | pest or weed control at 125 g/ha [1] | pest or weed control at 31 g/ha [2] | pest or weed control at 125 g/ha [2] | pest or weed control at 31 g/ha [3] | pest or weed control at 125 g/ha [3] | pest or weed control at 31 g/ha [4] | pest or weed control at 125 g/ha [4] | pest or weed control at 31 g/ha (kochia (Kochia scoparia) [5]) | pest or weed control at 125 g/ha (kochia (Kochia scoparia) [5]) | Corn plant response rating (crop injury, 0 = no effect, 100 = complete kill) at 31 g/ha (corn (Zea mays)) | Corn plant response rating (crop injury, 0 = no effect, 100 = complete kill) at 125 g/ha (corn (Zea mays)) | pest or weed control at 125 g/ha [6] | plant injury at 125 g/ha [7] | pest or weed control at 125 g/ha [8] | pest or weed control at 125 g/ha [15, 23] | plant injury at 250 g/ha (rice (Oryza sativa)) | pest or weed control at 250 g/ha [16] | pest or weed control at 250 g/ha [17] | pest or weed control at 250 g/ha [18] | also measured |
| --- | --- | --- | --- | --- | --- | --- | --- | --- | --- | --- | --- | --- | --- | --- | --- | --- | --- | --- | --- | --- | --- |
| N#Cc1cccc(Oc2ncc(Br)cn2)c1Oc1ncc(Cl)cn1 [Compound 5, 3-[(5-bromo-2-pyrimidinyl)oxy]-2-[(5-chloro-2-pyrimidinyl)oxy]benzonitrile] | 70% | 100% | 40% | 90% | 20% | 40% | 20% | 50% | 70% | 100% | 20% | 80% | 90% | 40% | 90% | 80% | 0% | 100% | 75% | 35% | pest or weed control at 31 g/ha [6]: 10%; plant injury at 31 g/ha [7]: 20%; pest or weed control at 31 g/ha [8]: 20%; pest or weed control at 31 g/ha [9]: 50%; pest or weed control at 125 g/ha [9]: 90%; pest or weed control at 31 g/ha [10, 19]: 100%; pest or weed control at 125 g/ha [10, 20]: 100%; pest or weed control at 31 g/ha [11]: 0%; pest or weed control at 125 g/ha [11]: 20%; pest or weed control at 31 g/ha [12]: 0%; pest or weed control at 125 g/ha [12]: 60%; pest or weed control at 31 g/ha (kochia (Kochia scoparia) [13]): 100%; pest or weed control at 125 g/ha (kochia (Kochia scoparia) [13]): 100%; pest or weed control at 31 g/ha [14, 21]: 90%; pest or weed control at 125 g/ha [14, 22]: 100%; pest or weed control at 31 g/ha [15]: 20% |
| FC(F)c1cnc(Oc2c(Br)cccc2Oc2ncc(Cl)cn2)s1 [Compound 10, 2-[3-bromo-2-[[5-(difluoromethyl)-2-thiazolyl]oxy]phenoxy]-5-chloropyrimidine] | 90% | 100% | 10% | 70% | 0% | 30% | 0% | 60% | 20% | 80% | 0% | 10% | 20% | 0% | 20% | 30% | 0% | 0% | 0% | 0% | pest or weed control at 31 g/ha [6]: 0%; plant injury at 31 g/ha [7]: 0%; pest or weed control at 31 g/ha [8]: 0%; pest or weed control at 31 g/ha [9]: 50%; pest or weed control at 125 g/ha [9]: 100%; pest or weed control at 31 g/ha [10, 19]: 90%; pest or weed control at 125 g/ha [10, 20]: 100%; pest or weed control at 31 g/ha [11]: 0%; pest or weed control at 125 g/ha [11]: 0%; pest or weed control at 31 g/ha [12]: 0%; pest or weed control at 125 g/ha [12]: 40%; pest or weed control at 31 g/ha (kochia (Kochia scoparia) [13]): 0%; pest or weed control at 125 g/ha (kochia (Kochia scoparia) [13]): 50%; pest or weed control at 31 g/ha [14, 21]: 40%; pest or weed control at 125 g/ha [14, 22]: 90%; pest or weed control at 31 g/ha [15]: 0% |
| Clc1cnc(Oc2cccc(Br)c2Oc2ncc(Cl)cn2)nc1 [Compound 19, 2,2′-[[3-bromo-1,2-phenylene]bis(oxy)]bis[5-chloropyrimidine]] | – | 100% | – | – | – | – | – | – | – | – | – | 50% | 80% | 50% | 70% | 80% | 25% | 95% | 85% | 15% | pest or weed control at 500 g/ha ([1]; 500 g ai/ha): 100%; Corn plant response rating (crop injury, 0 = no effect, 100 = complete kill) at 500 g/ha (corn (Zea mays); 500 g ai/ha): 60%; pest or weed control at 500 g/ha ([6]; 500 g ai/ha): 90%; plant injury at 500 g/ha ([7]; 500 g ai/ha): 60%; pest or weed control at 500 g/ha ([8]; 500 g ai/ha): 100%; pest or weed control at 125 g/ha [10, 19]: 100%; pest or weed control at 500 g/ha ([10]; 500 g ai/ha, 0 to 100 scale, read-out: Plant response rating, Pigweed): 100%; pest or weed control at 125 g/ha [14, 21]: 100%; pest or weed control at 500 g/ha ([14]; 500 g ai/ha, 0 to 100 scale, read-out: Plant response rating, Foxtail, Giant): 100%; pest or weed control at 500 g/ha ([15]; 500 g ai/ha, 0 to 100 scale, read-out: Plant response rating, Barnyardgrass): 90% |
